Experimental data reported in PubChem BioAssay (NCI).
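Five compound concentrations were applied to cells in 96-well plates for 48 hours; endpoints were derived by simple linear interpolation of the resulting dose-response curve. TGI: concentration producing complete growth inhibition.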

Tests used:
Experiment in all cases: growth of human tumour cells (NCI), 48 h
786-0 renal = system: 786-0 renal
A549 NSCLC = system: A549 NSCLC
CCRF-CEM leukemia = system: CCRF-CEM leukemia
COLO 205 colon = system: COLO 205 colon
DLD-1 colon = system: DLD-1 colon
DMS 114 small cell lung = system: DMS 114 small cell lung
DMS 273 small cell lung = system: DMS 273 small cell lung
EKVX NSCLC = system: EKVX NSCLC
HCC-2998 colon = system: HCC-2998 colon
HCT-116 colon = system: HCT-116 colon
HL-60(TB) leukemia = system: HL-60(TB) leukemia
HOP-18 NSCLC = system: HOP-18 NSCLC
HOP-62 NSCLC = system: HOP-62 NSCLC
HT29 colon = system: HT29 colon
IGROV1 ovarian = system: IGROV1 ovarian
K-562 leukemia = system: K-562 leukemia
KM12 colon = system: KM12 colon
KM20L2 colon = system: KM20L2 colon
LOX IMVI melanoma = system: LOX IMVI melanoma
LXFL 529 NSCLC = system: LXFL 529 NSCLC
M14 melanoma = system: M14 melanoma
M19-MEL melanoma = system: M19-MEL melanoma
MOLT-4 leukemia = system: MOLT-4 leukemia
NCI-H226 lung = system: NCI-H226 lung
NCI-H23 lung = system: NCI-H23 lung
NCI-H460 lung = system: NCI-H460 lung
NCI-H522 lung = system: NCI-H522 lung
OVCAR-3 ovarian = system: OVCAR-3 ovarian
OVCAR-4 ovarian = system: OVCAR-4 ovarian
OVCAR-8 ovarian = system: OVCAR-8 ovarian
RPMI-8226 leukemia = system: RPMI-8226 leukemia
RXF 393 renal = system: RXF 393 renal
SF-268 CNS = system: SF-268 CNS
SF-295 CNS = system: SF-295 CNS
SF-539 CNS = system: SF-539 CNS
SK-MEL-28 melanoma = system: SK-MEL-28 melanoma
SK-MEL-5 melanoma = system: SK-MEL-5 melanoma
SK-OV-3 ovarian = system: SK-OV-3 ovarian
SN12C renal = system: SN12C renal
SNB-19 CNS = system: SNB-19 CNS
SNB-75 CNS = system: SNB-75 CNS
SNB-78 CNS = system: SNB-78 CNS
SW-620 colon = system: SW-620 colon
TK-10 renal = system: TK-10 renal
U251 CNS = system: U251 CNS
UACC-62 melanoma = system: UACC-62 melanoma
XF 498 CNS = system: XF 498 CNS
A498 renal = system: A498 renal
ACHN renal = system: ACHN renal
CAKI-1 renal = system: CAKI-1 renal
HCT-15 colon = system: HCT-15 colon
HOP-92 NSCLC = system: HOP-92 NSCLC
MALME-3M melanoma = system: MALME-3M melanoma
OVCAR-5 ovarian = system: OVCAR-5 ovarian
SK-MEL-2 melanoma = system: SK-MEL-2 melanoma
SR leukemia = system: SR leukemia
UACC-257 melanoma = system: UACC-257 melanoma
UO-31 renal = system: UO-31 renal

Measured: TGI

CC1CCC2(CC1)NN=c1s/c(=C\c3ccc(O)cc3)c(=O)n1N2 (centres undefined)
not listed: A498 renal | ACHN renal | CAKI-1 renal | HCT-15 colon | HOP-92 NSCLC | MALME-3M melanoma | OVCAR-5 ovarian | SK-MEL-2 melanoma | SR leukemia | UACC-257 melanoma | UO-31 renal
> 100 µM: all other assays above

CC(C)(C)N=NNc1cn(C2OC(CO)C(O)C2O)c(=O)[nH]c1=O (centres undefined)
34.7 µM: SW-620 colon
42.7 µM: RPMI-8226 leukemia
50.8 µM: SR leukemia
95.4 µM: CCRF-CEM leukemia
not listed: OVCAR-4 ovarian | SF-539 CNS | U251 CNS | XF 498 CNS
> 100 µM: all other assays above

COc1ccc(-n2cnnc2-c2nsc3ccccc23)cc1
65.8 µM: RXF 393 renal
59.2 µM: SNB-75 CNS
not listed: 786-0 renal | DLD-1 colon | NCI-H226 lung | NCI-H522 lung | SF-295 CNS | SK-OV-3 ovarian | XF 498 CNS | A498 renal | CAKI-1 renal | MALME-3M melanoma
> 100 µM: all other assays above
